Results published in patent US20230286955A1, “INHIBITORS OF THEM1” (Cornell University, priority 2022, published 2023).
pKd: −log10 of the molar value.

Legend:
full-length human Acot12 = full-length human Acot12 (Homo sapiens, UniProt Q8WYK0); assay: biochemical
Experimental: (§1) Reaction labeling recombinant full-length Them1, Them1l-ΔSTART, START or Acot12 with Monolith RED-Tris-NTA (NanoTemper Technologies; San Francisco, CA) were performed according to the manufacturer's instructions in buffer containing PBS plus 0.5% Tween-20 for 60 min at 22° C. with a molar dye: protein ratio=1:1. […] Working concentrations of compounds were prepared by diluting in microscale thermophoresis buffer. Reactions consisting of 100 nM of fluorescently labeled recombinant protein (full-length Them1, Them1-ΔSTART, START or Acot12) and compounds were loaded onto standard Monolith NT.115 Capillaries (NanoTemper Technologies; San Francisco, CA). Fluorescence was measured using a Monolith NT.115 instrument (NanoTemper Technologies; San Francisco, CA) at 22° C. with instrument parameters adjusted to 40% LED power and medium microscale thermophoresis power. Data were fitted by non-linear regression in GraphPad Prism (GraphPad Software; San Diego, CA).

[1] = tested on: primary brown adipocytes cultured from A-Them1Tg mice; assay: Oxygen consumption rates (OCR) in primary brown adipocytes; format: cell-based, mouse; conditions: compounds at their in vitro IC50 concentrations, 30 min, NE 1 μM; vs wild type (DMSO)
Experimental: Primary brown adipocytes from 4- to 6-w old wild type and A-Them1Tg mice were isolated, cultured and differentiated as described (Okada et al., 2016). In brief, BAT tissues harvested from 5- to 7-w old mice were pooled, minced and digested with collagenase B (Sigma-Aldrich; St. Louis, MO), and dispersed in growth medium [DMEM/F12 containing 4.5 g/L glucose, 0.1 mM pyruvate, 10 mM HEPES (Thermo Fisher; Waltham, MA) supplemented with 1% penicillin/streptomycin, 1% GlutaMAX (Thermo Fisher; Waltham, MA) and 20% fetal bovine serum]. […] Upon achieving confluence, pre-adipocytes were induced to differentiate for 8 d by culturing for the first 48 h in differentiation medium [DMEM/F12 containing 4.5 g/L glucose, 0.1 mM pyruvate, 10 mM HEPES (Thermo Fisher; Waltham, MA) supplemented with 1% penicillin/streptomycin, 1% GlutaMAX (Thermo Fisher; Waltham, MA), 10% fetal bovine serum, bovine insulin (5 μg/mL; Thermo Fisher; Waltham, MA) and rosiglitazone (1 μM; Sigma Aldrich; St. Louis, MO)] supplemented with dexamethasone (5 μM; Sigma Aldrich; St. Louis, MO) and 3-isobutyl-1-methylxanthine (0.5 mM; Sigma Aldrich; St. Louis, MO) and differentiation medium thereafter. On differentiation d 6 to 8, the adipocyte differentiation media was supplemented with L-(−)-norepinephrine (+) bitartrate (Calbiochem; EMD Millipore; Billerica, MA). Primary brown adipocytes were maintained in a cell culture incubator at 37° C. with 5% CO2.
In primary brown adipocytes on d 8 of differentiation, values of OCR were measured in the presence or absence of compounds using a Seahorse XF96 extracellular flux analyzer (Agilent Technologies; Santa Clara, CA). […] OCR values were measured before and after the exposure of cells to NE (1 μM) and normalized with total live cell count calculated through staining with NucRed Live probe (Thermo Fisher; Waltham, MA) measured at 715 nm emission and 623 nm excitation using a SpectraMax i3X plate reader (Molecular Devices; San Jose; CA).

in vitro = conditions: C57BL/6, mouse, primary brown adipocytes
Experimental: Cytotoxicities of compounds were determined using a CellTiter-Glo® Luminescent Cell Viability Assay, which measures concentrations of ATP liberated from viable cells (Promega; Madison, WI). […] Tamoxifen (50 μM) was used as a (+) control. CellTiter-Glo reagent (10 μL) was added to each well and incubated on an orbital shaker for 10 min at 22° C. to induce cell lysis and stabilize the luminescent signal. Relative luminescent units (RLU) were determined using a NEO plate reader (BioTek, Winooski, VT).

full-length Them1 = target: T1, full-length Them1 (Homo sapiens, UniProt Q8WXI4); assay: Microscale thermophoresis binding, full-length Them1; conditions: in words
T1 sequence (Q8WXI4 14-594 isoform Q8WXI4-2 limits assumed): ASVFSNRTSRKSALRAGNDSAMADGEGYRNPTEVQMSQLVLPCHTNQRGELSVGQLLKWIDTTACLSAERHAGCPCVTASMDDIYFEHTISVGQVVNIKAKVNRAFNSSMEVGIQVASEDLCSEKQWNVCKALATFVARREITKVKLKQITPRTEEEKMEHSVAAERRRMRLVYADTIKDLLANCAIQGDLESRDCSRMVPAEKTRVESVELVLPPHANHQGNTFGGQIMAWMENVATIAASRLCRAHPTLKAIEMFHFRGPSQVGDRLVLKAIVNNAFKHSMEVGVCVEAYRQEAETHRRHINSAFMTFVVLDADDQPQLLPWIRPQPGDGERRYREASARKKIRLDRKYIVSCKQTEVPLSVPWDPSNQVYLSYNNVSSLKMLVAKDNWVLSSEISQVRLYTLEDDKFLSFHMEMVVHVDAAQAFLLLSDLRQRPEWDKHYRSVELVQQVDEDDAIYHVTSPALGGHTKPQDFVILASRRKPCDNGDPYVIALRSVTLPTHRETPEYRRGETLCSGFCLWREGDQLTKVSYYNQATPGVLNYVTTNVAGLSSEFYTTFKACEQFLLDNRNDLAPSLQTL
Experimental: (§2) Data represent the mean (s.e.m.) of triplicate determinations. Where not visible, error bars are contained within the symbol sizes.
as §1

recombinant human Them1 = target: T2, recombinant human Them1 (Homo sapiens, UniProt Q8WXI4); assay: Acot activity assay (fluorometric, C14-CoA), inhibition of Them1; format: biochemical; conditions: in words
T2 construct: Reaction labeling recombinant full-length Them1; made in house; host or cells: E. coli Shuffle T7
T2 sequence (Q8WXI4 14-594 isoform Q8WXI4-2 limits assumed): T1 sequence (Q8WXI4 14-594 isoform Q8WXI4-2 limits assumed)
Experimental: Human Them1 consists of two splice variants (Them1a and Them1b) that are distinguished by an additional 13 amino acids at the C-terminus of the ‘a’ isoform (Adams et al., 2001). […] Sufficient quantities of recombinant Them1 required for the HTS were obtained as a service of the University of Georgia Bioexpression and Fermentation Core Facility (Athens, GA). […] Purity of recombinant Them1 was analyzed by SDS-PAGE followed by Coomassie Brilliant Blue staining. The concentration of recombinant Them1 was determined according to the molar extinction coefficient at 280 nm, which was calculated based on the amino acid sequence (www.expasy.org). Single use aliquots of recombinant Them1 were stored at −80° C. until use to prevent protein precipitation during purification. The pH values of all buffers were adjusted to remain at least two units removed from the pI of recombinant Them1.

Them1-ΔSTART = target: T3, Them1-ΔSTART (Homo sapiens, UniProt Q8WXI4); assay: Microscale thermophoresis binding, Them1-ΔSTART; conditions: for pKd: read-out: Kd, Thioesterase domains (Them1-ΔSTART ), MST, 100 nM labeled protein, 22° C.; for binding to Them1-ΔSTART: in words
T3 sequence (Q8WXI4 43-329 isoform Q8WXI4-2 limits assumed): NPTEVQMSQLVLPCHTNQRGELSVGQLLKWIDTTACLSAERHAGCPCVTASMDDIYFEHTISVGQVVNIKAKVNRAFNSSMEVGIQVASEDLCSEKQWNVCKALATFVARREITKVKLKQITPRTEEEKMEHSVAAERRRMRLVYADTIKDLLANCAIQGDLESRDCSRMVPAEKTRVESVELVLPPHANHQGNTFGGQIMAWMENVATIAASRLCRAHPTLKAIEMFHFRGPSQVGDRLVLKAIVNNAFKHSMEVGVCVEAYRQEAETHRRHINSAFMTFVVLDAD
Experimental: as §2, §1

Them1 START domain = target: T4, Them1 START domain (Homo sapiens, UniProt Q8WXI4); assay: Microscale thermophoresis binding, START domain; conditions: in words
T4 sequence (Q8WXI4 339-594 isoform Q8WXI4-2): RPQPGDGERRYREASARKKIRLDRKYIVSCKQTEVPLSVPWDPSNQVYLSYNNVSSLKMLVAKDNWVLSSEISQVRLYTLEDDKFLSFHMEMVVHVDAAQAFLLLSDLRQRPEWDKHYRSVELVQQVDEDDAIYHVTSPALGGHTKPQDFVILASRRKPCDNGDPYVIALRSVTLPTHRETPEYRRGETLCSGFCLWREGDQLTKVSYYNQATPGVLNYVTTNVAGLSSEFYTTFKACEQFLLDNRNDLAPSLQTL
Text: A synthetic gene encoding the START domain was cloned into a pNIC28-Bsa4 bacterial expression vector (Novagen, EMD Biosciences; Madison, WI), which introduced an in-frame N-terminal His6 fusion containing a tobacco etch virus protease cleavage site to facilitate tag removal. The pNIC28-Bsa4-START domain plasmid was co-transformed into E. coli BL21 (DE3) (New England Biolabs; Ipswich, MA) competent cells with a pG-Tf2 vector (encoding groES-gorEL-tig chaperones) and then grown to an A600 of 0.5-0.7 in terrific broth. Under conditions of shaking (250 rpm) at 18° C., chaperones were induced by the addition of 5 ng/mL tetracycline HCl for 60 min followed by START domain induction upon the addition of 0.5 mM isoproyl β-D-thiogalactoside for ˜18 h. The bacteria were harvested by centrifugation, and then lysed by sonication with 20 mM Tris-Cl (pH 7.4), 500 mM NaCl, 25 mM imidazole, 5% glycerol, lysozyme, Dnase A, 0.1% Triton X-100, 5 mM β-mercaptoethanol and 100 μM phenylmethylsulfonyl fluoride. Following centrifugation of the bacterial lysate, recombinant START was purified by FPLC using a His affinity column (HisTrap HP column; GE Healthcare; Waukesha, WI). The soluble fraction containing recombinant START was applied to the column after equilibration with 20 mM Tris-Cl (pH 7.4), 500 mM NaCl, 25 mM imidazole and 5% glycerol, and then washed with the same buffer. Recombinant START was eluted from the HisTrap HP column using 20 mM Tris-Cl (pH 7.4), 500 mM NaCl, 500 mM imidazole and 5% glycerol followed by tobacco etch virus protease-mediated His-tag cleavage at 4° C. overnight with simultaneous dialysis into 20 mM Tris-Cl (pH 7.4), 500 mM NaCl and 5% glycerol. Recombinant START was further purified using a Superdex column (HiLoad 16/60 Superdex 75 column; GE Healthcare; Waukesha, WI) in 20 mM Tris-Cl (pH 7.4), 500 mM NaCl and 5% glycerol. Assessment of purity, protein concentration and storage of single use aliquots of recombinant START were performed as described above for recombinant Them1.
Reaction labeling recombinant full-length Them1, Them1l-ΔSTART, START or Acot12 with Monolith RED-Tris-NTA (NanoTemper Technologies; San Francisco, CA) were performed according to the manufacturer's instructions in buffer containing PBS plus 0.5% Tween-20 for 60 min at 22° C. with a molar dye: protein ratio=1:1. […] Working concentrations of compounds were prepared by diluting in microscale thermophoresis buffer. […] Fluorescence was measured using a Monolith NT.115 instrument (NanoTemper Technologies; San Francisco, CA) at 22° C. with instrument parameters adjusted to 40% LED power and medium microscale thermophoresis power. […]

Chain of full-length human Acot12 (Q8WYK0 whole entry): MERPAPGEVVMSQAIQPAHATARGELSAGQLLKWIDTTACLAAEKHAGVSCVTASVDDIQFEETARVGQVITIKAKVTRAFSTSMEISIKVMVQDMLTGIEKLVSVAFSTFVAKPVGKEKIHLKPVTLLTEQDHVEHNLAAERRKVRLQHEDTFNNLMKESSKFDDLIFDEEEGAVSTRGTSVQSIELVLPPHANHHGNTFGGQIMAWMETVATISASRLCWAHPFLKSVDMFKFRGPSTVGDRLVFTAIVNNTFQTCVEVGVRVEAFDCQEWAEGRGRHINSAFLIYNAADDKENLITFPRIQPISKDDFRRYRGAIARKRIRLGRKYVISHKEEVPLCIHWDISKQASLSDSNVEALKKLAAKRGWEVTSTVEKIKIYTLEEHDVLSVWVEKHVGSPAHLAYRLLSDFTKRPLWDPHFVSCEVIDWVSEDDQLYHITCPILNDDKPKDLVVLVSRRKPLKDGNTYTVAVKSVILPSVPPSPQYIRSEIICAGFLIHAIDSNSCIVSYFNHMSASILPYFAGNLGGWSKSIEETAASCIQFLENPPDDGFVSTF

In the case of `Cc1[nH]c2ccccc2c1C(c1cccs1)N1CCN(Cc2ccccc2)CC1` (centres unmarked) [3-((4-benzylpiperazin-1-yl)(thiophen-2-yl)methyl)-2-methyl-1H-indole], the pKd (full-length human Acot12) was < 3.90, the “OCR in A-Them1Tg brown adipocytes, reversal of Them1 suppression” value (“OCR in A-Them1Tg brown adipocytes” for short) [1] was “reversed the suppressive effects of Them1 on values of OCR” and the CC50 at 48 h (in vitro) was > 125 µM.

In the case of `Cc1[nH]c2ccccc2c1C(c1cccs1)N1CCCC1` (centres unmarked) [Compound U2], the CC50 at 48 h (in vitro) was > 125 µM.

With `Cc1[nH]c2ccccc2c1C(c1cccs1)N1CCN(C)CC1` (centres unmarked) [Compound U3] the CC50 at 48 h (in vitro) was > 125 µM.

In the case of `Cc1[nH]c2ccccc2c1C(c1cccs1)N1CCN(c2ccccc2)CC1` (centres unmarked) [Compound U4], the “Kd / binding affinity to full-length Them1 compared to the parent U1 compound” value (full-length Them1) was “comparable”, the “IC50 value compared to the parent U1 compound” value (recombinant human Them1) was “comparable” and the CC50 at 48 h (in vitro) was > 125 µM.

With `Cc1[nH]c2ccccc2c1C(c1cccs1)N1CCOCC1` (centres unmarked) [Compound U5] the CC50 at 48 h (in vitro) was > 125 µM.

With `Cc1[nH]c2ccccc2c1C(c1cccs1)N1CCCCC1` (centres unmarked) [Compound U6] the pKd (full-length human Acot12) was < 3.90, the “OCR in A-Them1Tg brown adipocytes” value [1] was “reversed the suppressive effects of Them1 on values of OCR” and the CC50 at 48 h (in vitro) was > 125 µM. For the same molecule, the pKd (Them1-ΔSTART) was < 3.90.

For `CCOC(=O)C1CCN(C(c2cccs2)c2c(C)[nH]c3ccccc23)CC1` (centres unmarked) [Compound U7, ethyl 1-((2-methyl-1H-indol-3-yl)(thiophen-2-yl)methyl)piperidine-4-carboxylate], the “binding affinity to the START domain compared to the parent U1 compound” value (Them1 START domain) was “comparable”, the pKd (full-length human Acot12) was < 3.90 and the “Kd / binding affinity to full-length Them1 compared to the parent U1 compound” value (full-length Them1) was “comparable”. For the same molecule, the CC50 at 48 h (in vitro) was > 125 µM, the “binding to Them1-ΔSTART” value (Them1-ΔSTART) was “did not bind” and the pKd (Them1-ΔSTART) was < 3.90.

In the case of `Cc1[nH]c2ccccc2c1C(c1cccs1)N1CCNCC1` (centres unmarked) [Compound U9, 2-methyl-3-(piperazin-1-yl(thiophen-2-yl)methyl)-1H-indole], the pKd (full-length human Acot12) was < 3.90, the “OCR in A-Them1Tg brown adipocytes” value [1] was “reversed the suppressive effects of Them1 on values of OCR” and the CC50 at 48 h (in vitro) was > 125 µM. The pKd (Them1-ΔSTART) was < 3.90.

For `CC(=O)N1CCN(C(c2cccs2)c2c(C)[nH]c3ccccc23)CC1` (centres unmarked) [Compound U10, 1-(4-((2-methyl-1H-indol-3-yl)(thiophen-2-yl)methyl)piperazin-1-yl)ethan-1-one], the pKd (full-length human Acot12) was < 3.90, the CC50 at 48 h (in vitro) was > 125 µM and the pKd (Them1-ΔSTART) was < 3.90.

For `Cc1[nH]c2ccccc2c1C(c1cccs1)N1CCN(C(=O)c2ccccc2)CC1` (centres unmarked) [Compound U13, (4-((2-methyl-1H-indol-3-yl)(thiophen-2-yl)methyl)piperazin-1-yl)(phenyl)methanone], the “binding affinity to the START domain compared to the parent U1 compound” value (Them1 START domain) was “comparable”, the pKd (full-length human Acot12) was < 3.90 and the “Kd / binding affinity to full-length Them1 compared to the parent U1 compound” value (full-length Them1) was “comparable”. The CC50 at 48 h (in vitro) was > 125 µM, the “binding to Them1-ΔSTART” value (Them1-ΔSTART) was “did not bind” and the pKd (Them1-ΔSTART) was < 3.90.

For `CCOC(=O)N1CCN(C(c2ccc(C)s2)c2c(C)[nH]c3ccccc23)CC1` (centres unmarked) [Compound U16, ethyl 4-((2-methyl-1H-indol-3-yl)(5-methylthiophen-2-yl)methyl)piperazine-1-carboxylate], the “binding affinity to the START domain compared to the parent U1 compound” value (Them1 START domain) was “comparable”, the pKd (full-length human Acot12) was < 3.90 and the “Kd / binding affinity to full-length Them1 compared to the parent U1 compound” value (full-length Them1) was “comparable”. The CC50 at 48 h (in vitro) was > 125 µM, the “binding to Them1-ΔSTART” value (Them1-ΔSTART) was “did not bind” and the pKd (Them1-ΔSTART) was < 3.90.

With `Cc1[nH]c2ccccc2c1C(c1cccs1)N1CCN(C(=O)OCc2ccccc2)CC1` (centres unmarked) [benzyl 4-((2-methyl-1H-indol-3-yl)(thiophen-2-yl)methyl)piperazine-1-carboxylate] the pKd (full-length human Acot12) was < 3.90 and the “OCR in A-Them1Tg brown adipocytes” value [1] was “remained suppressed”.

For `CCOC(=O)N1CCN(C(c2ccccc2)c2c(C)[nH]c3ccccc23)CC1` (centres unmarked) [ethyl 4-((2-methyl-1H-indol-3-yl)(phenyl)methyl)piperazine-1-carboxylate], the pKd (full-length human Acot12) was < 3.90.
